According to publication PMC12429584, “5-Hydroxylysine Captures the Suicidally-Inactivated Conformational State of Lysine 5,6-Aminomutase” (International Journal of Molecular Sciences, 2025):

Experiments:
[1] = target: T1, Lysine 5,6-aminomutase (5,6-LAM) (Acetoanaerobium sticklandii, UniProt E3PRJ4+E3PRJ5); experiment: UV-visible and X-band EPR spectroscopy; assay type: binding; settings: PLP and dAdoCbl holoenzyme, 100 mM NH4-EPPS pH 8.5, 37 °C; 2.5 mM (UV-vis) or 30 mM (EPR) 5-HL; active site, external aldimine with PLP; mechanism-based (suicide) inhibitor; stereoisomer mixture
T1 construct: gene kamD
T1 sequence (E3PRJ5 1-519 limits assumed): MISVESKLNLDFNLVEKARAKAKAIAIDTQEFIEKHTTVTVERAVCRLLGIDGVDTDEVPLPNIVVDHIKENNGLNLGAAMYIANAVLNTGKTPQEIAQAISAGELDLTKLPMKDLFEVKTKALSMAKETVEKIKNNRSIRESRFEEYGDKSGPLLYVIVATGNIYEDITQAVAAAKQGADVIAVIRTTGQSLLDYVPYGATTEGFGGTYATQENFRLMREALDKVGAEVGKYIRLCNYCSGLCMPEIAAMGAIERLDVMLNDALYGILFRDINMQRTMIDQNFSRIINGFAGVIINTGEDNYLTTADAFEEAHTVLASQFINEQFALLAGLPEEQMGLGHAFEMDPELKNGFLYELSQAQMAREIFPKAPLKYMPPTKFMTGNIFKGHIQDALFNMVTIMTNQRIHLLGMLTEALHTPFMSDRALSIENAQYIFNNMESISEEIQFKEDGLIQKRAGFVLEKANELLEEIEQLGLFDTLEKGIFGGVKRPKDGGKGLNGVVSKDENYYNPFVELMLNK
T1 sequence (E3PRJ4 1-262): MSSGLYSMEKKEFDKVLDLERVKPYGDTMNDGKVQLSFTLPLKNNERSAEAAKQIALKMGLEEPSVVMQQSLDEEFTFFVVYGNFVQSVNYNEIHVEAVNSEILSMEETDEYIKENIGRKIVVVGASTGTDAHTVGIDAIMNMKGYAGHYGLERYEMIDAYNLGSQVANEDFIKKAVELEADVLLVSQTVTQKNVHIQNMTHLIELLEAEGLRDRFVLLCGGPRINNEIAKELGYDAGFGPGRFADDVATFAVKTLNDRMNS

[2] = target: T1, Lysine 5,6-aminomutase (5,6-LAM); settings: turnover to 2,5-DAH at 1 and 3 min; PLP and dAdoCbl as cofactors

Row | Structure (SMILES) | UV-visible and X-band EPR spectroscopy [1] | thin-layer chromatography of product, ninhydrin [2]
1 | NCC(O)CCC(N)C(=O)O (racemic) [5-HL, 5-hydroxylysine] | These spectral changes demonstrate that 5-HL mimics the initial steps of transaldimination and Co–C bond rupture | 
2 | NCCCC[C@@H](N)C(=O)O [D-lysine] |  | bottom spot corresponding to D-lysine and the top spot corresponding to the product
